Tests used:
Escherichia coli [1] = experiment: Case 5: pathogen identification/quantification and biomarkers in blood before/after antibiotic treatment; type: in vivo, human (sepsis patient); conditions: for CRP: pretreatment 1.1; for BT (body temperature): pretreatment 39.6; for WBC: pretreatment 168.3; for Presepsin: pretreatment 343; for IL-6: pretreatment 678; for Pathogen (Ave): pretreatment 3600
Protocol: (§1) First, bacterial cells were collected from a blood specimen by centrifuging the whole blood at a low rate of 100×g for 5 minutes to separate blood cells, centrifuging the resultant supernatant (containing buffy coat) at a high rate of 20,000×g for 10 minutes to obtain a pellet.
(§2) Using DNA of a pathogenic bacterium taken from the blood specimen according to the method of Step 1 as a template, nested PCR (1st PCR: 30 cycle→100 double dilution→2nd PCR: 30 to 35 cycles) is carried out. The bacterial cells in patient specimens vary in a wide range from very small to large number. Since it is difficult to accurately determine the bacterial number in a single cycle of PCR, nested PCR methods are used in combination.
(§3) Subsequently, using pathogenic bacterium DNA of Step 1 as a template, nested PCR was carried out together with a quantification control in the conditions described in Step 2. In the 1st PCR and 2nd PCR for quantification, the following bacterial universal primer (primer for detecting almost all bacteria) was used. The target region of the bacterial universal primer is a bacterial conserved region (base sequence region common in almost all bacteria) of a 16S ribosomal RNA gene. A predetermined bacterium is quantified by a bacterial species-specific primer; however, a pathogenic bacterium is not identified in the early stage of sepsis. Because of this, a bacterial species-specific primer cannot be used. Accordingly, unless a bacterial universal primer is used, an unidentified bacterium cannot be detected.
(§4) As mentioned above, E. coli DNA samples of three different concentrations and of a known bacterial number were used as quantification controls. Based on the data of three quantification controls different in concentration, a calibration curve was prepared. Based on bacterial DNA extracted from a patient specimen, the number of pathogenic bacterial cells was determined.
(§5) For the reason, it is necessary to make a correction based on the operon copy number per bacterium species in order to more accurately determine bacterial number. Since identification and qualification of a pathogenic bacterium are carried out concurrently in Step 3 and Step 4, the number of pathogenic bacterial cells can be corrected based on 16S ribosomal RNA operon copy number of the bacterium identified to computationally obtain the correct number of bacterial cells.
(§6) According to Step 1 to Step 5 of Example 1, a pathogenic bacterium rapid identification/quantification test using sepsis patient's specimens (EDTA blood collection tube, 2 mL) was carried out. […] Blood was sampled before treatment with an antibiotic (pretreatment), and 24 hours (after 24 hrs.) and 72 hours (after 72 hrs.) after administration of the antibiotic. At the three points, a pathogenic bacterium rapid identification/quantification test was carried out together with measurement of body temperature, white blood cell count, CRP, presepsin and IL-6. Furthermore, a blood specimen sampled before the antibiotic treatment was subjected to a blood culture method to identify a pathogenic bacterium and subjected to a drug sensitivity test. General information about individual cases is as follows.

Escherichia coli [2] = experiment: Case 3: pathogen count (nested PCR) and biomarkers in blood before/after antibiotic treatment; type: in vivo, human (sepsis patient); conditions: for CRP: pretreatment 1.1; for BT (body temperature): pretreatment 39.6; for WBC: pretreatment 168.3; for Presepsin: pretreatment 343; for IL-6: pretreatment 678; for Pathogen (Ave): pretreatment 3600
Protocol: as §1, §2, §3
as §4, with “determined. Since the number of bacterial cells was obtained as an E. coli cell-number equivalent used as a quantification control, the number of bacterial cells in a specimen can be more easily, rapidly and accurately determined.” for “determined.”
as §6, with “4” for “5”, “quantification” for “identification/quantification”
Case 3: • person, sepsis associated with urinary tract infection • blood culture/urine culture: Escherichia coli • antibiotics substance: tazobactam/piperacillin (sensitive)

Enterobacter aerogenes [3] = experiment: drug sensitivity test of the pathogenic bacterium from blood culture; type: cell-based; conditions: Case 7, isolate from blood specimen sampled before antibiotic treatment
Protocol: as §6

[4] = system: Streptococcus dysgalactiae; experiment: Case 6: pathogen identification/quantification and biomarkers in blood before/after antibiotic treatment; type: in vivo, human (sepsis patient); conditions: for BT (body temperature): pretreatment 39.7; for WBC: pretreatment 89.5; for IL-6: pretreatment 115; for CRP: pretreatment 136.1; for Presepsin: pretreatment 1373; for Pathogen (Ave): pretreatment 2651
Protocol: as §1, §2, §3, §4, §5, §6

Escherichia coli [5] = experiment: drug sensitivity test of the pathogenic bacterium from blood culture; type: cell-based; conditions: isolate from blood specimen sampled before antibiotic treatment
Protocol: as §6, with “4” for “5”, “quantification” for “identification/quantification”
as §6, with “Furthermore, a blood specimen sampled before the antibiotic treatment was subjected to a blood culture method to identify a pathogenic bacterium and subjected to a drug sensitivity test. General information about individual cases is as follows.” left out

Enterobacter aerogenes [6] = experiment: Case 7: pathogen identification/quantification and biomarkers in blood before/after antibiotic treatment; type: in vivo, human (sepsis patient); conditions: for BT (body temperature): pretreatment 38.8; for WBC: pretreatment 59.4; for CRP: pretreatment 72.3; for Presepsin: pretreatment 1322; for Pathogen (Ave): pretreatment 41083; for IL-6: pretreatment 238000
Protocol: as §1, §2, §3, §4, §5, §6

Escherichia coli [7] = experiment: Case 4: pathogen identification/quantification and biomarkers in blood before/after antibiotic treatment; type: in vivo, human (sepsis patient); conditions: for BT (body temperature): pretreatment 37.0; for IL-6: pretreatment 122; for CRP: pretreatment 185.9; for WBC: pretreatment 285.6; for Presepsin: pretreatment 1298; for Pathogen (Ave): pretreatment 1314
Protocol: as §1, §2, §3
as §4, with “determined. Since the number of bacterial cells was obtained as an E. coli cell-number equivalent used as a quantification control, the number of bacterial cells in a specimen can be more easily, rapidly and accurately determined.” for “determined.”
as §5, §6
Case 4: • person, sepsis associated with urinary tract infection • Tm mapping method: Escherichia coli (Dist. value=0.29) • blood culture/urine culture: Escherichia coli • antibiotics substance: meropenem (sensitive)

Escherichia coli [8] = experiment: Case 1: pathogen count (nested PCR) and biomarkers in blood before/after antibiotic treatment; type: in vivo, human (sepsis patient); conditions: for BT (body temperature): pretreatment 37.0; for IL-6: pretreatment 122; for CRP: pretreatment 185.9; for WBC: pretreatment 285.6; for Presepsin: pretreatment 1298; for Pathogen (Ave): pretreatment 1314
Protocol: as §1, §2, §3
as §4, with “determined. Since the number of bacterial cells was obtained as an E. coli cell-number equivalent used as a quantification control, the number of bacterial cells in a specimen can be more easily, rapidly and accurately determined.” for “determined.”
as §6, with “4” for “5”, “quantification” for “identification/quantification”
Case 1: • person, sepsis associated with urinary tract infection • blood culture/urine culture: Escherichia coli • antibiotic substance: meropenem (sensitive)

tazobactam/piperacillin
CRP (Escherichia coli [1]; Case 5, 24 h after antibiotic): 9.3 mg/L | BT (body temperature) (Escherichia coli [1]; Case 5, 24 h after antibiotic): 36.6 °C | WBC (Escherichia coli [1]; Case 5, 24 h after antibiotic): 61.4 × 100/μL | Presepsin (Escherichia coli [1]; Case 5, 24 h after antibiotic): 267 ng/mL | IL-6 (Escherichia coli [1]; Case 5, 24 h after antibiotic): 5 pg/mL | Pathogen (Ave) (Escherichia coli [1]; Case 5, 24 h after antibiotic): 2102 cells/ml | CRP (Escherichia coli [1]; Case 5, 72 h after antibiotic): 2.9 mg/L | BT (body temperature) (Escherichia coli [1]; Case 5, 72 h after antibiotic): 37.2 °C | WBC (Escherichia coli [1]; Case 5, 72 h after antibiotic): 49.2 × 100/μL | Presepsin (Escherichia coli [1]; Case 5, 72 h after antibiotic): 501 ng/mL | IL-6 (Escherichia coli [1]; Case 5, 72 h after antibiotic): 6.3 pg/mL | Pathogen (Ave) (Escherichia coli [1]; Case 5, 72 h after antibiotic): 2 cells/ml | CRP (Escherichia coli [2]; Case 3, 24 h after antibiotic): 9.3 mg/L | BT (body temperature) (Escherichia coli [2]; Case 3, 24 h after antibiotic): 36.6 °C | WBC (Escherichia coli [2]; Case 3, 24 h after antibiotic): 61.4 × 100/μL | Presepsin (Escherichia coli [2]; Case 3, 24 h after antibiotic): 267 ng/mL | IL-6 (Escherichia coli [2]; Case 3, 24 h after antibiotic): 5 pg/mL | Pathogen (Ave) (Escherichia coli [2]; Case 3, 24 h after antibiotic): 2102 cells/ml | CRP (Escherichia coli [2]; Case 3, 72 h after antibiotic): 2.9 mg/L | BT (body temperature) (Escherichia coli [2]; Case 3, 72 h after antibiotic): 37.2 °C | WBC (Escherichia coli [2]; Case 3, 72 h after antibiotic): 49.2 × 100/μL | Presepsin (Escherichia coli [2]; Case 3, 72 h after antibiotic): 501 ng/mL | IL-6 (Escherichia coli [2]; Case 3, 72 h after antibiotic): 6.3 pg/mL | Pathogen (Ave) (Escherichia coli [2]; Case 3, 72 h after antibiotic): 2 cells/ml | drug sensitivity (Enterobacter aerogenes [3]): sensitive | BT (body temperature) ([4]; Case 6, 24 h after antibiotic): 37.0 °C | WBC ([4]; Case 6, 24 h after antibiotic): 77.3 × 100/μL | IL-6 ([4]; Case 6, 24 h after antibiotic): 85.3 pg/mL | CRP ([4]; Case 6, 24 h after antibiotic): 139.8 mg/L | Presepsin ([4]; Case 6, 24 h after antibiotic): 854 ng/mL | Pathogen (Ave) ([4]; Case 6, 24 h after antibiotic): 308 cells/ml | BT (body temperature) ([4]; Case 6, 72 h after antibiotic): 37.2 °C | WBC ([4]; Case 6, 72 h after antibiotic): 54.1 × 100/μL | IL-6 ([4]; Case 6, 72 h after antibiotic): 59.4 pg/mL | CRP ([4]; Case 6, 72 h after antibiotic): 43.2 mg/L | Presepsin ([4]; Case 6, 72 h after antibiotic): 708 ng/mL | Pathogen (Ave) ([4]; Case 6, 72 h after antibiotic): 20 cells/ml | drug sensitivity (Escherichia coli [5]): sensitive | BT (body temperature) (Enterobacter aerogenes [6]; Case 7, 24 h after antibiotic): 38.4 °C | WBC (Enterobacter aerogenes [6]; Case 7, 24 h after antibiotic): 258.5 × 100/μL | CRP (Enterobacter aerogenes [6]; Case 7, 24 h after antibiotic): 107 mg/L | Presepsin (Enterobacter aerogenes [6]; Case 7, 24 h after antibiotic): 1516 ng/mL | Pathogen (Ave) (Enterobacter aerogenes [6]; Case 7, 24 h after antibiotic): 19156 cells/ml | IL-6 (Enterobacter aerogenes [6]; Case 7, 24 h after antibiotic): 41700 pg/mL | BT (body temperature) (Enterobacter aerogenes [6]; Case 7, 72 h after antibiotic): 36.4 °C | WBC (Enterobacter aerogenes [6]; Case 7, 72 h after antibiotic): 198.2 × 100/μL | CRP (Enterobacter aerogenes [6]; Case 7, 72 h after antibiotic): 241.4 mg/L | Presepsin (Enterobacter aerogenes [6]; Case 7, 72 h after antibiotic): 2473 ng/mL | Pathogen (Ave) (Enterobacter aerogenes [6]; Case 7, 72 h after antibiotic): 59 cells/ml | IL-6 (Enterobacter aerogenes [6]; Case 7, 72 h after antibiotic): 176 pg/mL

C[C@@H](O)[C@H]1C(=O)N2C(C(=O)O)=C(S[C@@H]3CN[C@H](C(=O)N(C)C)C3)[C@H](C)[C@H]12 [meropenem]
BT (body temperature) (Escherichia coli [7]; Case 4, 24 h after antibiotic): 37.9 °C | IL-6 (Escherichia coli [7]; Case 4, 24 h after antibiotic): 85.8 pg/mL | CRP (Escherichia coli [7]; Case 4, 24 h after antibiotic): 223.1 mg/L | WBC (Escherichia coli [7]; Case 4, 24 h after antibiotic): 301.4 × 100/μL | Presepsin (Escherichia coli [7]; Case 4, 24 h after antibiotic): 1729 ng/mL | Pathogen (Ave) (Escherichia coli [7]; Case 4, 24 h after antibiotic): 248 cells/ml | BT (body temperature) (Escherichia coli [7]; Case 4, 72 h after antibiotic): 37.2 °C | IL-6 (Escherichia coli [7]; Case 4, 72 h after antibiotic): 20.7 pg/mL | CRP (Escherichia coli [7]; Case 4, 72 h after antibiotic): 86.4 mg/L | WBC (Escherichia coli [7]; Case 4, 72 h after antibiotic): 98.7 × 100/μL | Presepsin (Escherichia coli [7]; Case 4, 72 h after antibiotic): 1138 ng/mL | Pathogen (Ave) (Escherichia coli [7]; Case 4, 72 h after antibiotic): 0 cells/ml | BT (body temperature) (Escherichia coli [8]; Case 1, 24 h after antibiotic): 37.9 °C | IL-6 (Escherichia coli [8]; Case 1, 24 h after antibiotic): 85.8 pg/mL | CRP (Escherichia coli [8]; Case 1, 24 h after antibiotic): 223.1 mg/L | WBC (Escherichia coli [8]; Case 1, 24 h after antibiotic): 301.4 × 100/μL | Presepsin (Escherichia coli [8]; Case 1, 24 h after antibiotic): 1729 ng/mL | Pathogen (Ave) (Escherichia coli [8]; Case 1, 24 h after antibiotic): 248 cells/ml | BT (body temperature) (Escherichia coli [8]; Case 1, 72 h after antibiotic): 37.2 °C | IL-6 (Escherichia coli [8]; Case 1, 72 h after antibiotic): 20.7 pg/mL | CRP (Escherichia coli [8]; Case 1, 72 h after antibiotic): 86.4 mg/L | WBC (Escherichia coli [8]; Case 1, 72 h after antibiotic): 98.7 × 100/μL | Presepsin (Escherichia coli [8]; Case 1, 72 h after antibiotic): 1138 ng/mL | Pathogen (Ave) (Escherichia coli [8]; Case 1, 72 h after antibiotic): 0 cells/ml | drug sensitivity (Escherichia coli [5]): sensitive

Reference: patent publication US20210102239A1, “METHOD FOR DETERMINING BACTERIAL NUMBER IN SPECIMEN” (MITSUI CHEMICALS, INC., priority 2017, published 2021)
